In the experiment the test system is HCT116. The conditions noted are these: 72 h. Put shortly:
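After seeding at 250 cells per well in 1536-well plates, HCT116 cells were given 5 h to attach. CellTiter-Glo luminescence, scaled to 0% for vehicle and -100% for positive control, was pattern-corrected. Fitting with a four-parameter Hill model produced IC50 and maximal efficacy.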

Counter-ions that a name gives are not always drawn.

With `Cc1oc(=O)oc1COC(=O)N1CC[C@@H](N2CC/C(=C\C3=C(C(=O)O)N4C(=O)[C@@H](NC(=O)/C(=N/O)c5nsc(N)n5)[C@H]4SC3)C2=O)C1` [CEFTOBIPROLE MEDOCARIL SODIUM], the IC50 cell viability is more than 45.8 µM (ICRF193 0 nM) and more than 45.8 µM (ICRF193 200 nM).
In the case of `CCOC(=O)Nc1ccc2c(c1)N(C(=O)CCN1CCOCC1)c1ccccc1S2` [Moricizine hydrochloride], the IC50 cell viability is more than 45.8 µM (ICRF193 0 nM) and more than 45.8 µM (ICRF193 200 nM).
Compound `CCOc1nc2cccc(C(=O)O)c2n1Cc1ccc(-c2ccccc2-c2noc(=O)[nH]2)cc1` [Azilsartan (TAK-536)] returned an IC50 cell viability (ICRF193 0 nM) of more than 45.8 µM and an IC50 cell viability (ICRF193 200 nM) of more than 45.8 µM.
`CCC(NC(C)C)C(O)c1ccc(O)c(O)c1` (stereo not given) [ISOETHARINE MESYLATE]: the IC50 cell viability reads like this: (ICRF193 0 nM) more than 45.8 µM; (ICRF193 200 nM) more than 45.8 µM.
On to `CO/N=C(\C(=O)N[C@@H]1C(=O)N2C(C(=O)O)=C(COC(C)=O)CS[C@H]12)c1csc(N)n1` [Cefotaxime sodium salt], for which the IC50 cell viability by setting is: (ICRF193 0 nM) more than 45.8 µM; (ICRF193 200 nM) more than 45.8 µM.
`O=[N+]([O-])/N=C1\NCCN1Cc1ccc(Cl)nc1` [Imidacloprid]: the IC50 cell viability was more than 45.8 µM (ICRF193 0 nM) and more than 45.8 µM (ICRF193 200 nM).
Compound `CCCCc1nc(Cl)c(CO)n1Cc1ccc(-c2ccccc2-c2nnn[nH]2)cc1` [Losartan] registered an IC50 cell viability (ICRF193 0 nM) of more than 45.8 µM and an IC50 cell viability (ICRF193 200 nM) of more than 45.8 µM.
With `C[C@H]1CN(C[C@H](Cc2ccccc2)C(=O)NCC(=O)O)CC[C@@]1(C)c1cccc(O)c1` [Alvimopan], the IC50 cell viability (ICRF193 0 nM) was more than 45.8 µM and the IC50 cell viability (ICRF193 200 nM) was more than 45.8 µM.
Turning to `CCCCCCCCCCCCCCCC(=O)OC1CCCn2c1nc(C)c(CCN1CCC(c3noc4cc(F)ccc34)CC1)c2=O` (stereo not given) [Paliperidone Palmitate], the IC50 cell viability is more than 45.8 µM (ICRF193 0 nM) and more than 45.8 µM (ICRF193 200 nM).
As for `C[C@H](O)[C@H]1CC[C@H]2[C@@H]3CC[C@@H]4C[C@H](O)CC[C@]4(C)[C@H]3CC[C@]12C` [Pregnandiol], the IC50 cell viability is, setting by setting: (ICRF193 0 nM) more than 45.8 µM; (ICRF193 200 nM) more than 45.8 µM.
As to `CC(C(=O)O)c1ccc2c(c1)CC(=O)c1ccccc1S2` (stereo not given) [Zaltoprofen], the IC50 cell viability was more than 45.8 µM (ICRF193 0 nM) and more than 45.8 µM (ICRF193 200 nM).
`CCCCCCCCCCCCCCCCCCCCCCCCCCCCO` [1-Octacosanol]: the IC50 cell viability is more than 45.8 µM (ICRF193 0 nM) and more than 45.8 µM (ICRF193 200 nM).
For `Cc1ccccc1C(=O)Nc1ccc(C(=O)N2CCCC(O)c3cc(Cl)ccc32)c(C)c1` (stereo not given) [Tolvaptan], the IC50 cell viability is more than 45.8 µM (ICRF193 0 nM) and more than 45.8 µM (ICRF193 200 nM).
As to `CC(=O)Nc1c(I)c(NC(C)=O)c(I)c(C(=O)O)c1I` [Diatrizoic acid dihydrate], the IC50 cell viability (ICRF193 0 nM) was more than 45.8 µM and the IC50 cell viability (ICRF193 200 nM) was more than 45.8 µM.
For the compound `Sc1nc2ccccc2s1` [2-Mercaptobenzothiazole], the IC50 cell viability reads like this: (ICRF193 0 nM) more than 45.8 µM; (ICRF193 200 nM) more than 45.8 µM.
`C[C@H]1CNCCCN1S(=O)(=O)c1cccc2cncc(F)c12` [Ripasudil]: the IC50 cell viability was more than 45.8 µM (ICRF193 0 nM) and more than 45.8 µM (ICRF193 200 nM).
`CC1=C(/C=C/C(C)=C/C=C/C(C)=C/C=C/C=C(C)/C=C/C=C(C)/C=C/C2=C(C)C[C@@H](O)CC2(C)C)C(C)(C)C[C@H](O)C1` [Zeaxanthin] had an IC50 cell viability (ICRF193 0 nM) of more than 45.8 µM and an IC50 cell viability (ICRF193 200 nM) of more than 45.8 µM.
As for `CC1(C)C[C@@H]1C(=O)N/C(=C\CCCCSC[C@H](N)C(=O)O)C(=O)O` [Cilastatin], the IC50 cell viability by setting is: (ICRF193 0 nM) more than 45.8 µM; (ICRF193 200 nM) more than 45.8 µM.
As for `Nc1cc(C(Cl)=C(Cl)Cl)c(S(N)(=O)=O)cc1S(N)(=O)=O` [Clorsulon], the IC50 cell viability reads like this: (ICRF193 0 nM) more than 45.8 µM; (ICRF193 200 nM) more than 45.8 µM.
Turning to `CC(C)NC[C@@H](O)COc1cccc2ccccc12` [Dexpropranolol], the IC50 cell viability is more than 45.8 µM (ICRF193 0 nM) and more than 45.8 µM (ICRF193 200 nM).
For `CN(C)[C@@H]1C(O)=C(C(=O)NCN2CCCC2)C(=O)[C@@]2(O)C(O)=C3C(=O)c4c(O)cccc4[C@@](C)(O)[C@H]3C[C@@H]12` [Rolitetracycline], the IC50 cell viability was more than 45.8 µM (ICRF193 0 nM) and more than 45.8 µM (ICRF193 200 nM).
Regarding `C[C@H](CCC(=O)O)[C@H]1CC[C@H]2[C@@H]3CC[C@@H]4C[C@H](O)CC[C@]4(C)[C@H]3C[C@H](O)[C@]12C` [Sodium deoxycholate monohydrate], the IC50 cell viability runs as follows: (ICRF193 0 nM) more than 45.8 µM; (ICRF193 200 nM) more than 45.8 µM.
In the case of `NC(=O)C1(N2CCCCC2)CCN(CCCC(=O)c2ccc(F)cc2)CC1` [Pipamperone dihydrochloride], the IC50 cell viability by setting is: (ICRF193 0 nM) more than 45.8 µM; (ICRF193 200 nM) more than 45.8 µM.
`CC(CCc1ccc(O)cc1)NCC(O)c1ccc(O)cc1` (stereo not given) [RACTOPAMINE HYDROCHLORIDE]: the IC50 cell viability runs as follows: (ICRF193 0 nM) more than 45.8 µM; (ICRF193 200 nM) more than 45.8 µM.
The compound `CN(C)CCc1c[nH]c2ccc(C[C@H]3COC(=O)N3)cc12` [Zolmitriptan] had an IC50 cell viability (ICRF193 0 nM) of more than 45.8 µM and an IC50 cell viability (ICRF193 200 nM) of more than 45.8 µM.

The values above are taken from the supplement of paper PMC12137928.
